Assay results published in patent US20080200475A1 (Pfizer Inc., priority 2005, published 2008).
Values joined by “and” are separate entries in the source; they are usually repeats but may differ in a detail not shown here. Equal entries are not always repeated.

Molecular target: T1, Human P2Y12 (Homo sapiens, UniProt Q9H244)
T1 construct: expressed in transfected cells; host or cells: HEK cells (membrane preparation)
Assay: [^33P]-2MeS-ADP Binding to Recombinant Human P2Y12 Membranes (Assay 3)
Settings: for inhibition at 10 µM / % Inhibition, [^33P]-2MeS-ADP Binding to Recombinant Human P2Y12 Membranes (Assay 3): highest concentration tested 10 μM; for IC50 / Ki: membranes of HEK cells transfected with P2Y12, competition with ^33P 2MeS-ADP, multiple lines = multiple runs
Experimental: 3. Human P2Y12 Recombinant Cell Membrane Binding Assay with ^33P 2MeS-ADP.
The ability of a test compound to bind to the P2Y12 receptor was evaluated in a recombinant cell membrane binding assay. In this competitive binding assay, the test compound competed against a radiolabelled agonist for binding to the P2Y12 receptor, expressed on the cell membrane. Inhibition of binding of the labeled material was measured and correlated to the amount and potency of the test compound. Data from this assay are presented in Table F. This binding assay is a modification of the procedure in Takasaki, J. et. al, Mol. Pharmacol., 2001, Vol. 60, pg. 432.
HEK cells were transfected with the pDONR201P2Y12 vector and cultured in MEM with GlutaMAX I, Earle's salts, 25 mM HEPES (Gibco #42360-032) containing 10% dialyzed FBS (Gibco #26400-044), 100 μM nonessential amino acids (Gibco #11140-050), 1 mM sodium pyruvate (Gibco #11360-070), 0.05% geneticin (Gibco #10131-027), 3 μg/mL blasticidin (Fluka brand from Sigma #15205), and 0.5 μg/mL puromycin (Sigma #P-8833).
Confluent cells were washed once with cold DPBS (Gibco #14190-136). Fresh DPBS was added and the cells were scraped and centrifuged at 500×g for 5 minutes at 4° C. The cell pellets were resuspended in TEE buffer (25 mM Tris, 5 mM EDTA, 5 mM EGTA) containing 1 protease inhibitor cocktail tablet (Roche #1 873 580) per 50 mL (called TEE+Complete) and can be flash frozen at this point.
In one embodiment, frozen cell pellets were used to prepare the membranes. In that embodiment, the frozen cell pellets were thawed on ice. In another embodiment, cell pellets may be used without flash freezing before moving on to the next step.
Cell pellets were resuspended in TEE buffer+Complete and homogenized in a glass dounce for 12 strokes. The cell suspension was centrifuged at 500×g for 5 minutes at 4° C. The supernatant was saved and centrifuged at 20,000×g for 20 minutes at 4° C. This supernatant was discarded and the cell pellet resuspended in TEE buffer+Complete and homogenized in a glass dounce for 12 strokes. This suspension was centrifuged at 20,000×g for 20 minutes at 4° C. and the supernatant discarded. The pellet was resuspended in assay buffer (50 mM Tris, 100 mM NaCl, 1 mM EDTA) containing one protease inhibitor cocktail tablet per 50 mL, and can be flash frozen as 1 mL aliquots at this point.
[…] A 1 mM DMSO intermediate stock was made in a dilution plate and from this the seven dilutions were made to 5× the final concentration in assay buffer containing 0.02% BSA.
To a polypropylene assay plate (Costar #3365) the following were added: a) 30 μL of assay buffer containing one protease inhibitor cocktail tablet per 50 mL; b) 30 μL of 1 nM ^33P 2MeS-ADP made in assay buffer containing 0.02% BSA and 12.5 mg/mL ascorbic acid; 30 μL of cold 1.5 μM 2MeS-ADP for the positive control wells, or assay buffer containing 0.02% BSA and 12.5 mg/mL ascorbic acid for the negative control wells, or 5× drug dilution; and 60 μL of 1 ug/well membranes.
The plates were incubated at room temperature for 1 hour. The reaction was stopped using a cell harvester to transfer the reaction mixture onto GF/B UniFilter plates (Perkin Elmer #6005177), and washed three times with wash buffer (50 mM Tris), filtering between each wash. The filter plates were dried for approximately 20 minutes in an oven at 50° C. Back seals were adhered to the filter plates and 25 uL of Microscint 20 scintillation fluid (Perkin Elmer #6013621) were added. The filter plates were sealed, shaken for 30 minutes, and counted on a Top Count. Data were analyzed using a four-parameter curve fit with a fixed minimum and maximum experimentally defined as the average positive and negative controls on each plate, and with a hill slope equal to one. […]

T1 sequence (Q9H244 whole entry): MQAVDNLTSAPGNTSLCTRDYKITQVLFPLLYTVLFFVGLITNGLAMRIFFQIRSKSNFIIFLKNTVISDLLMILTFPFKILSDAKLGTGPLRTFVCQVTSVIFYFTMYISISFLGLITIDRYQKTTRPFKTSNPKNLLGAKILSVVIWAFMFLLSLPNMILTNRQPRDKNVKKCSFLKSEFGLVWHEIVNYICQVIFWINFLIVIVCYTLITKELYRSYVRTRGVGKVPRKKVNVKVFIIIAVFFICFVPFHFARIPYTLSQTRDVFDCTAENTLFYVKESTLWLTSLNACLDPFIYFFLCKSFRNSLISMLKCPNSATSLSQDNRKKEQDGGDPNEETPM

inhibition at 10 µM [%]	IC50	Ki	% Inhibition, [^33P]-2MeS-ADP Binding to Recombinant Human P2Y12 Membranes (Assay 3)	SMILES
75.6	0.403 µM	0.227 µM		CCc1cc2c(N3CCN(C(=O)c4ccc(-c5ccccc5)cc4)CC3)nc(NC(=O)[C@H]3CCCN3)nc2s1 [Example 40, (R)-Pyrrolidine-2-carboxylic acid{4-[4-(biphenyl-4-carbonyl)piperazin-1-yl]-6-ethylthieno[2,3-d]pyrimidin-2-yl}amide]
85	0.156 µM	0.085 µM		CCc1cc2c(N3CCN(C(=O)c4ccc(-c5ccccc5)cc4)CC3)nc(NC(=O)CN)nc2s1 [Example 41, 2-Amino-N-{4-[4-(biphenyl-4-carbonyl)piperazin-1-yl]-6-ethylthieno[2,3-d]pyrimidin-2-yl}acetamide]
	6.88 µM and 4.16 µM	3.82 µM and 2.3 µM	46.8% and 71.7%	CCOC(=O)CCNC(=O)Nc1nc(N2CCN(C(=O)CC(F)(F)F)CC2)c2cc(CC)sc2n1 [Example 46, Ethyl N-[({6-ethyl-4-[4-(3,3,3-trifluoropropanoyl)piperazin-1-yl]thieno[2,3-d]pyrimidin-2-yl}amino)carbonyl]-beta-alaninate]
88.9	0.449 µM and 0.308 µM and 0.254 µM	0.234 µM and 0.168 µM and 0.14 µM	94.4% and 92%	CCc1cc2c(N3CCN(C(=O)CC(F)(F)F)CC3)nc(NC(=O)NCCC(=O)O)nc2s1 [Example 49, N-[({6-Ethyl-4-[4-(3,3,3-trifluoropropanoyl)piperazin-1-yl]thieno[2,3-d]pyrimidin-2-yl}amino)carbonyl]-beta-alanine]
